According to US12145947B2, “Pyrimidine based modulators and uses thereof” (Quanta Therapeutics, Inc., priority 2022, dated 2024):

What was measured:
[1] = target: T1, KRAS G12D/RAF1 (Homo sapiens, UniProt P01116, G12D); assay: Protein-protein interaction (PPI) HTRF assay KRAS G12D/RAF1; format: binding; details: Table 4
T1 construct: His6-MBP (N, cleaved yes); made in house; host or cells: E. coli
Procedure: Biotinylated KRAS wt and KRAS G12DNV proteins were expressed and purified in conditions similar to those previously reported (Tran, et al., 2021) (Zhang, et al., 2020). Briefly, KRAS (1-169) proteins were expressed in E. coli at 18° C. with an upstream TEV cleavage site (ENLFYQS (SEQ ID NO: 6)) followed an Avi tag sequence ([…] (SEQ ID NO: 7)). KRAS expression constructs contained both a His6 (SEQ ID NO: 8) and maltose-binding protein (MBP) tags at the N-terminus for Ni-NTA column purification prior to overnight TEV cleavage and MBP column purification. The avi-tagged NRAS expression construct contained both a His6 tag (SEQ ID NO: 8) and SUMO cleavage sige at the N-terminus for Ni-NTA column purification followed by His-ULPi digestion overnight. All avi-tagged RAS proteins were dialyzed into buffer containing ATP, biotin, and BirA followed by purification over a second Ni-NTA column and then run over a size exclusion HiLoad™ 26/600 Superdex™ column in 20 mM HEPES, pH 7.5, 300 mM NaCl, 5 mM MgCl2, and 1 mM TCEP. Fractions containing the protein of interest were pooled, concentrated, and confirmed by intact mass spectrometry. To prepare ‘GTP’ loaded KRAS and NRAS, biotinylated KRAS or NRAS was nucleotide exchanged from GDP-bound protein to GppNHp-bound (Jena Biosciences, NU-401-50) protein in the presence of alkaline phosphatase and excess GppNHp as previously described and the resulting nucleotide content was confirmed by HPLC reverse phase analytical chromatography (Donohue, et al., 2019) (Tran, et al., 2021).
His-tagged RAF1 (52-131) was similarly expressed in E. coli at 18° C. overnight with an upstream TEV cleavage site. His-tagged RAF1 expression construct contained both a His6 (SEQ ID NO: 8) and MBP tags at the N-terminus for Ni-NTA column purification followed by MBP-tagged TEV digestion overnight. RAF1 protein samples were further purified over a MBP column followed by a Ni-NTA column and a second MBP column. The fractions containing the protein of interest were pooled, concentrated, and further purified over a HiLoad™ 16/600 Superdex™ 75 pg size exclusion column into 20 mM HEPES, pH8.0, 200 mM NaCl, 5 mM TCEP.
When RAS proteins are in the active GTP-bound conformation, they bind the effector protein RAF1 at the N-terminus Ras-binding domain (RBD, residues 52-131) (Tran, et al., 2021). Homogenous time resolved fluorescence (HTRF) was used to monitor the interaction between wt or mutant KRAS and RAF1 or wt NRAS and RAFT. Compounds were assayed in the presence of KRAS G12D/V and RAF1 versus wt KRAS to assess activity against mutant and w.t. KRAS. Similarly, compounds were then assayed in the presence of w.t. NRAS and RAF1 to assess RAS isoform selectivity. In all assay formats, His-tagged RAF1 protein was incubated with the HTRF donor, anti-6His (“6His” disclosed as SEQ ID NO: 8) Tb Cryptate gold (Cisbio 61DB10RDF), and biotinylated RAS proteins were incubated with the HTRF acceptor, streptavidin-d2 (CisBio 610SADLA). The intensity of the fluorescence signal emitted is proportional to binding between the two proteins. The donor solution was prepared by mixing 16 nM His-tagged RAF1 in protein dilution buffer with 1:100 anti-6His (“6His” disclosed as SEQ ID NO: 8) Tb cryptate in PPI-Terbium detection buffer. 16 nM biotinylated RAS protein was diluted into protein dilution buffer (50 mM Tris-HCl pH 7.5, 150 mM NaCl, 0.1 mM MgCl2, 1 mM TCEP, 0.005% Tween20) and mixed with 1:2000 Streptavidin-d2 diluted in PPI-Terbium detection buffer (CisBio 61DBTORDF). 50× compound in DMSO was mixed with 16 nM KRAS-acceptor solution and incubated for 30 minutes at room temperature. After compound pre-incubation with KRAS, the RAF1 donor solution was added to the KRAS-acceptor solution and incubated for 1 hour at room temperature. The fluorescence signal emitted was monitored at 665 nm and 615 nm using an Envision multimode plate reader. […]

[2] = target: T2, GST-tagged KRAS-G12D (2-169) (Homo sapiens, UniProt P01116, G12D); assay: Nucleotide exchange assay (NEA), SOS-mediated, HTRF, KRAS G12D; format: biochemical; details: Table 4; IC50 extracted at 30 min
T2 construct: GST-tagged KRAS-G12D (2-169, Reaction Biology, MSC-11-539); purchased Reaction Biology MSC-11-539 (KRAS G12D); MSC-11-502 (SOS1cat)
Source text: This activity is tightly regulated by GTPase activating proteins (GAPs) and guanine nucleotide exchange factors (GEFs). GEFs, such as SOS1/2, activate Ras proteins by exchanging GDP for GTP, thus returning Ras to its active conformation (Simanshu, Nissley, & McCormick, 2017). […] Homogenous time resolved fluorescence (HTRF) was used to detect SOS-mediated binding of a fluorescent GTP analog, GTP-DY-647P1 (Jena Biosciences NU-820-647P1) to GST-tagged KRAS-G12D (2-169, Reaction Biology, MSC-11-539) or to GST-tagged KRAS-G12V (2-169, Reaction Biology, MSC-11-540).
GST-tagged KRAS-G12D (2-169) and anti-GST MAb Tb Cryptate Gold (CisBio 61GSTTLB) were diluted into assay buffer (20 mM HEPES, pH 7.3, 150 mM NaCl, 5 mM MgCl2, 0.05% BSA 0.0025% NP40, 1 mM DTT) to prepare a 2.5× donor solution. 5× compound was added to the protein mixture and incubated for 1 h at RT. 2.5× acceptor solution containing SOSIcat (564-1049, Reaction Biology MSC-11-502) and GTP-DY-647P1 were then added to the donor KRAS mixture such that the final concentration of the reaction contained 5 nM GST-tagged KRAS-G12D (2-169), 20 nM SOScat, and 150 nM GTP. The reaction was monitored using at RT with the Envision multimode plate reader (Ex/Em 337/665, […]) up to 90 minutes at 5 minute intervals. To monitor KRAS-G12V Sos-mediated nucleotide exchange, 80 nM SOS was added to reaction instead of 20 nM. All other components were the same as previously described. Data was blanked to reactions without SOS1 and % inhibition was calculated such that DMSO only=0% and blank=100%. Curve fitting was done using a 4 parameter fit. Reported IC50 values were extracted at 30 min and 90 min for the KRAS-G12D and KRAS-G12V assays, respectively.
Curve fitting was done using a 4 parameter fit. NEA KRAS G12D IC50 (uM) values of selected compounds are depicted in Table 2 with compounds having a value <0.01 uM as ++++; >0.01 uM to 0.1 uM as +++; >0.1 uM to 1 uM as ++; >1 uM to 20 uM as +; and >20 uM as NA.

T1 sequence (P01116 with tags, fused parts or gaps isoform P01116-2 G12D): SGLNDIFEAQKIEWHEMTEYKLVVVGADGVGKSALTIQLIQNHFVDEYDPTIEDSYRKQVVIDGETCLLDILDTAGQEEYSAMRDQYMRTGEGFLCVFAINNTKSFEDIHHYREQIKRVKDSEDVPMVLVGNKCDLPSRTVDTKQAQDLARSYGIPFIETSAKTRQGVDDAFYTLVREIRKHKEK
T2 sequence (P01116 2-169 isoform P01116-2 G12D): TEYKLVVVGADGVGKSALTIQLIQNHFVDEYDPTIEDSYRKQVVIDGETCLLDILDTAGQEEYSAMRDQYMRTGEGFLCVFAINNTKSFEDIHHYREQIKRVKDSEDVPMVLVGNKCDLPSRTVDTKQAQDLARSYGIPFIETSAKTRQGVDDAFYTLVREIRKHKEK

SMILES	IC50 [1]	IC50 [2]
N#Cc1c(N2C[C@H]3CC[C@@H](C2)N3)nc(OCC2(CN3CCS(=O)(=O)CC3)CC2)nc1N1CC2(CCc3sc(N)c(C#N)c32)C1 [Compound 95, 2-amino-1′-[5-cyano-6-[(1R,5S)-3,8-diazabicyclo[3.2.1]octan-3-yl]-2-[[1-[(1,1-dioxo-1,4-thiazinan-4-yl)methyl]cyclopropyl]methoxy]pyrimidin-4-yl]spiro[5,6-dihydrocyclopenta[b]thiophene-4,3′-azetidine]-3-carbonitrile]	1 to 10 µM	< 0.01 µM
Cc1nnc(-c2nn3c(c2Cl)CN(c2nc(OC[C@@]45CCCN4C[C@H](F)C5)nc(N4CC5(CCc6sc(N)c(C#N)c65)C4)c2C#N)CCC3)n1C [Compound 60, 2-amino-1′-[6-[3-chloro-2-(4,5-dimethyl-1,2,4-triazol-3-yl)-4,6,7,8-tetrahydropyrazolo[1,5-a][1,4]diazepin-5-yl]-5-cyano-2-[[(2R,8S)-2-fluoro-1,2,3,5,6,7-hexahydropyrrolizin-8-yl]methoxy]pyrimidin-4-yl]spiro[5,6-dihydrocyclopenta[b]thiophene-4,3′-azetidine]-3-carbonitrile]	1 to 10 µM	< 0.01 µM
N#Cc1cnc(OCC2(CN3CCOCC3)CC2)nc1N1CC2(CCCc3sc(N)c(C#N)c32)C1 [Compound 63, 2-amino-1′-[5-cyano-2-[[1-(morpholinomethyl)cyclopropyl]methoxy]pyrimidin-4-yl]spiro[6,7-dihydro-5H-benzothiophene-4,3′-azetidine]-3-carbonitrile]	10 to 100 µM	0.01 to 0.1 µM
CC1Cn2nncc2CN1c1nc(OC[C@@]23CCCN2C[C@H](F)C3)nc(N2CC3(CCc4sc(N)c(C#N)c43)C2)c1C#N (stereo partly drawn) [Compound 67, 2-amino-1′-[5-cyano-6-(6-methyl-6,7-dihydro-4H-triazolo[1,5-a]pyrazin-5-yl)-2-[[(2R,8S)-2-fluoro-1,2,3,5,6,7-hexahydropyrrolizin-8-yl]methoxy]pyrimidin-4-yl]spiro[5,6-dihydrocyclopenta[b]thiophene-4,3′-azetidine]-3-carbonitrile]	10 to 100 µM	0.1 to 1 µM
N#Cc1c(N2CCC(O)C(O)CC2)nc(OC[C@@]23CCCN2C[C@H](F)C3)nc1N1CC2(CCc3sc(N)c(C#N)c32)C1 (stereo partly drawn) [Compound 38, 2-amino-1′-[5-cyano-6-(4,5-dihydroxyazepan-1-yl)-2-[[(2R,8S)-2-fluoro-1,2,3,5,6,7-hexahydropyrrolizin-8-yl]methoxy]pyrimidin-4-yl]spiro[5,6-dihydrocyclopenta[b]thiophene-4,3′-azetidine]-3-carbonitrile]	1 to 10 µM	0.01 to 0.1 µM
CN(C)C(=O)c1nn2c(c1Cl)CN(c1nc(OC[C@@]34CCCN3C[C@H](F)C4)nc(N3CC4(CCc5sc6[nH]cnc(=O)c6c54)C3)c1C#N)CCC2 [Compound 44, 3-chloro-5-[5-cyano-2-[[(2R,8S)-2-fluoro-1,2,3,5,6,7-hexahydropyrrolizin-8-yl]methoxy]-6-(12-oxospiro[7-thia-9,11-diazatricyclo[6.4.0.02,6]dodeca-1(8), 2(6), 10-triene-3,3′-azetidine]-1′-yl)pyrimidin-4-yl]-N,N-dimethyl-4,6,7,8-tetrahydropyrazolo[1,5-a][1,4]diazepine-2-carboxamide]	> 100 µM	1 to 20 µM
N#Cc1c(N2C[C@H]3CC[C@@H](C2)N3)nc(OCC2(CN3CCOCC3)CC2(F)F)nc1N1CC2(CCc3sc(N)c(C#N)c32)C1 (stereo partly drawn) [Compound 68, 2-amino-1-[5-cyano-2-[[2,2-difluoro-1-(morpholinomethyl)cyclopropyl]methoxy]-6-[(1R,5S)-3,8-diazabicyclo[3.2.1]octan-3-yl]pyrimidin-4-yl]spiro[5,6-dihydrocyclopenta[b]thiophene-4,3′-azetidine]-3-carbonitrile]	1 to 10 µM	< 0.01 µM
